# US20260009065A1, “COMPOSITIONS FOR EXPOSING FILM-FORMING MICROBES AND METHODS FOR USE OF THE COMPOSITIONS” (Guild Associates Inc., priority 2022, published 2026)
# What was measured:
# S. proteamaculans [1] = experiment: Treatment Toxicity Assay (ATP luminescence), planktonic lifestyle; format: cell-based, Serratia proteamaculans
# Procedure: (§1) Treatment Toxicity: To measure cell toxicity the ATP luminescence of the post-centrifugation cell free supernatants were also determined using the BacTiterGlo Microbial Cell Viability Assay (Promega) and compared to untreated controls to give a percent control value shown. Values over 100% are viewed negatively as potential toxic effects of an enzyme treatment.
# (§2) With both growth lifestyles a clear dose response curve is evident.
# S. proteamaculans [2] = experiment: Treatment Toxicity (ATP luminescence of cell free supernatant, BacTiterGlo), biofilm; format: cell-based, Serratia proteamaculans; conditions: for Treatment Toxicity % Ctr: Biofilm Lifestyle
# Procedure: These enzyme combinations were tested for bacterial cell release from enzyme-treated biofilms. Post-enzyme exposure sample overlying solutions were collected and centrifuged to collect bacterial cells released by the enzyme treatment. The supernatants were removed, and the cell pellet resuspended in PBS and ATP luminescence was determined and compared to non-enzyme treated controls. Preferred enzyme pairs were expected to release more cells than untreated controls. Additionally, because maintaining extracted microbe viability was important, the ATP luminescence of the post-centrifugation cell free supernatants were also determined and compared to untreated controls. ATP is normally sequestered inside of cells so the presence of substantially more ATP in the cell free supernatant of enzyme treated biofilms indicates the enzyme treatment may have had toxic effects on the treated bacteria.
# as §1, §2
# S. proteamaculans [3] = experiment: Sanitizing agent treatment, single species biofilm controls in multi-species biofilm testing; format: cell-based, Serratia proteamaculans; conditions: 100 ug/ml BZAC
# Procedure: Multi-species biofilms were screened by treatment with a sanitizing agent to identify species combinations that show heightened resistance. The multi-species biofilm with the most resistance to the sanitizer was used to screen three (3) enzyme combinations for anti-biofilm and bacterial release testing of the six (6) top performing two (2) enzyme combinations tested earlier. Non-nuclease enzymes were tested at two (2) different concentrations. Each three-enzyme combination was also compared to each of the two-enzyme combination core pair to try to identify synergy of the three-enzyme combination over the two-enzyme combination.
# as §2
# L. plantarum = experiment: Crystal Violet assay, two-enzyme treatment of mono-species biofilm; format: cell-based, Lactobacillus plantarum; conditions: enzyme combined w/nuclease; Crystal Violet assay vs untreated control
# Procedure: (§3) Applicant's initial testing was carried out with combinations of two (2) enzymes rather than a single enzyme with a nuclease present in all enzyme combinations. DNase I, a specific commonly utilized DNA nuclease, was selected as a universal enzyme. Both DNase I and other DNA nucleases were compared and formulated to have equivalent activity and then used interchangeably in the research. Nuclease was tested against all seven (7) species at three (3) concentrations and then the most overall effective concentration was used in two (2) enzyme testing. Initial two (2) enzyme testing utilized traditional mono-species biofilms of the 7 species in Table 1. The nuclease was also always tested alone in all experiments allowing some determination of its contribution to the resulting antibiofilm activity. Non-nuclease enzymes were tested at 3 concentrations while the nuclease concentration was held constant. Anti-biofilm activity was measured using the Crystal Violet assay, an easy and ubiquitous assay used for measuring changes in biofilm magnitude in the biofilm research industry.
# (§4) The results of the initial two enzyme combination testing using the Crystal Violet assay is given in Table 3 and are given as a percent of the untreated control Crystal Violet signal.
# S. enterica = experiment: as above; format: cell-based, Salmonella enterica; conditions: enzyme combined w/nuclease; Crystal Violet assay vs untreated control
# Procedure: as §3, §4
# A. JohnsonII = experiment: as above; format: cell-based, Acinetobacter johnsonii; conditions: enzyme combined w/nuclease; Crystal Violet assay vs untreated control
# Procedure: as §3, §4
# L. monocytogenes = experiment: as above; format: cell-based, Listeria monocytogenes; conditions: enzyme combined w/nuclease; Crystal Violet assay vs untreated control
# Procedure: as §3, §4
# E. coli = experiment: as above; format: cell-based, Escherechia coli O157:H7; conditions: enzyme combined w/nuclease; Crystal Violet assay vs untreated control
# Procedure: as §3, §4
# [4] = tested on: S. proteamaculans biofilms; experiment: Crystal Violet assay, enzyme treatment of single species biofilm; format: cell-based, Serratia proteamaculans; conditions: enzyme combined w/nuclease; Crystal Violet assay vs untreated control
# Procedure: as §3
# Therefore, three-enzyme combinations were also tested against single species biofilms of this species.
# as §4
# 7-species = experiment: Crystal Violet assay, average over the 7 mono-species biofilms; format: cell-based; conditions: enzyme combined w/nuclease; average over species tested
# Procedure: as §3, §4
Substance,Treatment Toxicity % Ctr (S. proteamaculans [1]; 1 μg/ml BZAC) [% Ctr],Treatment Toxicity % Ctr (S. proteamaculans [1]; 10 μg/ml BZAC) [% Ctr],Treatment Toxicity % Ctr (S. proteamaculans [1]; 100 μg/ml BZAC) [% Ctr],Treatment Toxicity % Ctr (S. proteamaculans [2]; 1 μg/ml BZAC) [% Ctr],Treatment Toxicity % Ctr (S. proteamaculans [2]; 10 μg/ml BZAC) [% Ctr],Treatment Toxicity % Ctr (S. proteamaculans [2]; 100 μg/ml BZAC) [% Ctr],"cell-free ATP luminescence relative to untreated control biofilms (S. proteamaculans [2]; functionally active concentrations, a representative species)",biofilm reduction by sanitizer treatment (S. proteamaculans [3]),"Biofilm Reduction Due to Enzyme Cocktail Treatment, L. plantarum (L. plantarum) [%]","Biofilm Reduction Due to Enzyme Cocktail Treatment, S. enterica (S. enterica) [%]","Biofilm Reduction Due to Enzyme Cocktail Treatment, A. JohnsonII (A. JohnsonII) [%^]","Biofilm Reduction Due to Enzyme Cocktail Treatment, L. monocytogenes (L. monocytogenes) [%]","Biofilm Reduction Due to Enzyme Cocktail Treatment, E. coli (E. coli) [%]","Biofilm Reduction Due to Enzyme Cocktail Treatment, S. proteamaculens [4] [%]","Biofilm Reduction Due to Enzyme Cocktail Treatment, 7-species average (7-species) [%]"
Benzalkonium chloride [BZAC],859.3,284.9,724.9,1250.5,150.8,793.3,over twelve-fold higher,consistently show biofilm reduction,,,,,,,
Cellulase,,,,,,,,,0,10,22.4,0,0,0,5
